Experimental findings from ChEMBL document CHEMBL1201862, “PubChem BioAssay data set” (2004) are described below.

Some test systems named below: COLO 205; PC-3; SN12C; SR; BT-549; RPMI-8226; DU-145; SF-295; K562; SW-620; OVCAR-4; Hs-578T; SNB-19; UACC-257; LOX IMVI; CAKI-1; CCRF-CEM; NCI-H522; OVCAR-5; HT-29.
Holding throughout (assay): DTP human tumour cell line panel, 48 h

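A five-concentration, 48-hour dose response in 96-well plates underlies each endpoint, interpolated linearly between surrounding concentrations. Here, GI50 denotes the concentration required for 50% inhibition of growth.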 Active and inactive are the calls of the source. No stated cut-off is given here; in the data, active = GI50 up to about 1.1 µM and inactive = higher.

For orientation: GI50 means the concentration that inhibits growth by half. `C#CCn1ncc2c(SC)ncnc21`: the GI50 in the assay on COLO 205, with PC-3, with SN12C, with SR, with BT-549 and in the assay with RPMI-8226 was > 100 µM (inactive) in each case. The GI50 in the assay with DU-145, in the assay with SF-295, in the assay on K562, with SW-620, in the assay with OVCAR-4 and in the assay with Hs-578T was > 100 µM (inactive) throughout. Further, the GI50 in the assay with SNB-19, with UACC-257, in the assay with LOX IMVI, with CAKI-1, in the assay on CCRF-CEM and in the assay on NCI-H522 was > 100 µM (inactive) each time. For the same compound, the GI50 in the assay with OVCAR-5 and in the assay with HT-29 was > 100 µM (inactive) throughout.
As for `O=c1[nH]n(CCc2ccccc2CCl)c2ccc([N+](=O)[O-])cc12`, the GI50 with COLO 205 was > 100 µM (inactive); with PC-3, 78.3 µM (inactive); with SN12C, > 100 µM (inactive); with SR, 50.9 µM (inactive); in the assay with BT-549, 33.3 µM (inactive); with RPMI-8226, > 100 µM (inactive). Besides, the GI50 was 77.3 µM (inactive) in the assay with DU-145; 52.5 µM (inactive) in the assay on SF-295; 38.9 µM (inactive) in the assay with K562; > 100 µM (inactive) in the assay on SW-620; 37.2 µM (inactive) in the assay with OVCAR-4; 54.3 µM (inactive) in the assay with Hs-578T. The GI50 in the assay on SNB-19 was > 100 µM (inactive); in the assay on UACC-257 it was 70.6 µM (inactive); with LOX IMVI, 41.5 µM (inactive); with CAKI-1 it was 91 µM (inactive); in the assay on CCRF-CEM, 37 µM (inactive); with NCI-H522 it was 52.6 µM (inactive). In addition, the GI50 in the assay with OVCAR-5 was > 100 µM (inactive); with HT-29, 88.1 µM (inactive).
As for `Cc1cc2c(c3c1c1ccccc1n3C)C(=O)C=CC2=O`, the GI50 with COLO 205 was 29.1 µM (inactive); in the assay on PC-3 it was 16.9 µM (inactive); with SN12C, 27.2 µM (inactive); in the assay with SR, 0.885 µM (active); with BT-549 it was 14.1 µM (inactive); in the assay with RPMI-8226, 2.82 µM (inactive). Also, the GI50 with DU-145 is 58.9 µM (inactive); with SF-295, 32.4 µM (inactive); in the assay on K562, 3.15 µM (inactive); in the assay on SW-620, 7.6 µM (inactive); in the assay with OVCAR-4 it was 12 µM (inactive); in the assay on Hs-578T, 24.8 µM (inactive). Besides, the GI50 in the assay with SNB-19 was 63.7 µM (inactive); in the assay with UACC-257, 18.2 µM (inactive); with LOX IMVI it was 16.9 µM (inactive); with CAKI-1 it was 23.2 µM (inactive); in the assay with CCRF-CEM, 0.631 µM (active); in the assay on NCI-H522 it was 13.9 µM (inactive). In addition, the GI50 is 43.7 µM (inactive) in the assay with OVCAR-5 and 31 µM (inactive) in the assay on HT-29.
For the compound `COc1cc2c(cc1OC)C1c3ccccc3CCCN1CC2` (stereo not given), the GI50 in the assay with COLO 205 was > 100 µM (inactive); in the assay with PC-3, > 100 µM (inactive); in the assay on SN12C, > 100 µM (inactive); with SR, > 100 µM (inactive); in the assay on BT-549 it was > 100 µM (inactive); in the assay on RPMI-8226, 46.7 µM (inactive). The GI50 in the assay with DU-145 was > 100 µM (inactive); in the assay with SF-295 it was 47.6 µM (inactive); in the assay with K562, > 100 µM (inactive); in the assay with SW-620, > 100 µM (inactive); in the assay with OVCAR-4, > 100 µM (inactive); in the assay with Hs-578T it was > 100 µM (inactive). Further, the GI50 in the assay on SNB-19, in the assay with UACC-257, in the assay on LOX IMVI, with CAKI-1, in the assay on CCRF-CEM and in the assay on NCI-H522 was > 100 µM (inactive) in each case. The GI50 with OVCAR-5 is > 100 µM (inactive); with HT-29, 51.2 µM (inactive).
For the compound `N#CC(NNC(=O)Cc1ccccc1)c1c(O)ccc2ccccc12` (stereo not given), the GI50 in the assay with COLO 205 is 24.7 µM (inactive); in the assay on PC-3, 5.33 µM (inactive); in the assay on SN12C it was 7.93 µM (inactive); with SR, 3.44 µM (inactive); in the assay with BT-549, 1.73 µM (inactive); in the assay with RPMI-8226 it was 3.63 µM (inactive). The GI50 in the assay with DU-145 was 10.2 µM (inactive); in the assay on SF-295, 4.63 µM (inactive); in the assay on K562, 3.69 µM (inactive); in the assay with SW-620, 6.98 µM (inactive); in the assay with OVCAR-4, 5.5 µM (inactive); in the assay on Hs-578T, 7.64 µM (inactive). The GI50 was 9.79 µM (inactive) with SNB-19; 3.59 µM (inactive) with UACC-257; 1.47 µM (inactive) with LOX IMVI; 4.91 µM (inactive) in the assay on CAKI-1; 1.2 µM (inactive) in the assay with CCRF-CEM; 3.47 µM (inactive) in the assay on NCI-H522. In addition, the GI50 with OVCAR-5 was 13.9 µM (inactive); with HT-29, 11.3 µM (inactive).
With `CCCn1c2ccccc2c2ccc3c(c21)C(=O)C=CC3=O`, the GI50 in the assay on COLO 205 is 2.39 µM (inactive); with PC-3, 3.54 µM (inactive); with SN12C, 3.78 µM (inactive); in the assay with SR, 0.719 µM (active); in the assay with BT-549, 2.21 µM (inactive); in the assay with RPMI-8226, 2.12 µM (inactive). Besides, the GI50 in the assay with DU-145 is 9.79 µM (inactive); with SF-295 it was > 10 µM (inactive); with K562, 0.561 µM (active); with SW-620, 1.16 µM (inactive); with OVCAR-4 it was 1.88 µM (inactive); in the assay on Hs-578T, 7.03 µM (inactive). In addition, the GI50 in the assay on SNB-19 was > 10 µM (inactive); in the assay on UACC-257, 1.78 µM (inactive); in the assay with LOX IMVI it was > 10 µM (inactive); with CAKI-1, 2.78 µM (inactive); with CCRF-CEM it was 0.204 µM (active); with NCI-H522, 1.98 µM (inactive). For the same compound, the GI50 in the assay on OVCAR-5 and in the assay with HT-29 was > 10 µM (inactive) in each case.
Regarding `Nc1nc(N)c(N=Nc2ccc([As](=O)(O)O)c(O)c2)c(N)n1`, the GI50 with COLO 205 is 22 µM (inactive); in the assay on PC-3 it was 22.7 µM (inactive); in the assay on SN12C, 12.1 µM (inactive); in the assay on SR, 0.834 µM (active); with BT-549 it was 32.4 µM (inactive); in the assay with RPMI-8226 it was 3.21 µM (inactive). In addition, the GI50 in the assay with DU-145 is 7.5 µM (inactive); with SF-295, 33.7 µM (inactive); in the assay with K562, 11.1 µM (inactive); with SW-620 it was 4.89 µM (inactive); in the assay on OVCAR-4, 32.1 µM (inactive); with Hs-578T it was 13 µM (inactive). Besides, the GI50 in the assay with SNB-19 was 43.2 µM (inactive); with UACC-257 it was 91.6 µM (inactive); with LOX IMVI, 6.67 µM (inactive); with CAKI-1, 58.3 µM (inactive); with CCRF-CEM, 1.9 µM (inactive); in the assay with NCI-H522, 3.5 µM (inactive). In addition, the results for the GI50 with OVCAR-5 and with HT-29 were > 100 µM (inactive) and 3.75 µM (inactive), respectively.
